Key:
RE strain HSV-1 [1] = experiment: Topical efficacy in RE strain HSV-1-induced stromal keratitis in the rabbit; type: in vivo, NZW rabbit
Experimental: The following examples describe topical ocular evaluation of the inventive compounds during RE strain HSV-1-induced stromal keratitis in the rabbit. These evaluations included analysis of the topical efficacy of both the inventive compounds alone, or, in certain instances, in combination with trifluorothymidine (TFT). The evaluation was carried out by the combined analysis of both clinical and virological (HSV-1 recovery) parameters. The specified number of NZW rabbits (1.5-2.0 kg) were used. Animals were received at least two days prior to inoculation to allow them to accommodate to the conditions in the vivarium facility. This conditioning of the animals prior to inoculation minimizes animal variability. After the accommodation, the animals received a slit-lamp examination to exclude any animals with pre-existing anterior segment ocular defects. Animals were bi-laterally inoculated by intrastromal injection of 10^5 PFU RE strain HSV-1. The animals were then replaced individually into cages. On day number three post-inoculation (PI), the animals were evaluated by slit-lamp microscopy. Corneal stromal, iris and conjunctival disease were graded on an increasing scale of severity from 0+ to 4+. After evaluation, the animals were divided into a specified number of groups each containing an equal number of animals based on a matched corneal stromal involvement. Topical therapy was initiated immediately after animal groupings. All animals received daily slit-lamp evaluations from day 3 through 7 PI. The ocular HSV-1 induced disease severity was recorded daily. […] Differences in disease resolution and development of stromal alterations are statistically analyzed. Virus recovery during and after topical therapy was compared. The topical efficacy of Compounds 23 and 96 on stromal HSV-1 infection in the rabbit model of stromal keratitis was evaluated. All animals received daily slit lamp evaluations from day 3 through day 7 and on days 9 and 10 PI. The ocular HSV-1-induced disease severity was recorded daily. The topical efficacy of Compounds 23, 96 and 82 on stromal HSV-1 infection in the rabbit model of stromal keratitis was evaluated. All animals received daily slit lamp evaluations for day 3 through day 7 PI. The ocular HSV-1-induced disease severity was recorded daily. The topical efficacy of Compounds 23 and 96 in combination with TFT on stromal HSV-1 infection in the rabbit model of stromal keratitis was evaluated. Groups 1, 2 and 3 each have 5 animals for a total of 10 eyes per combination therapy. This allowed minimization of individual animal variability and performance of a statistical analysis on the results of the combination therapies. Groups 3, 4 and 5 have 2 animals each. These single-agent therapies were used to verify previously reported data on the efficacy of these compounds. The compounds are used at a lower frequency of delivery to match the dosing regimen of the combination-agent group. Consequently, the study also provides comparative information on Compounds 23 and 96 as a lower frequency of topical administration (4 times per day vs. 9 times per day in previous studies).

RE strain HSV-1 [2] = experiment: HSV-1 recovery from tear film, cornea and trigeminal ganglia of treated rabbits; type: in vivo, NZW rabbit
Description: The specified number of NZW rabbits (1.5-2.0 kg) were used. Animals were received at least two days prior to inoculation to allow them to accommodate to the conditions in the vivarium facility. This conditioning of the animals prior to inoculation minimizes animal variability. After the accommodation, the animals received a slit-lamp examination to exclude any animals with pre-existing anterior segment ocular defects. Animals were bi-laterally inoculated by intrastromal injection of 10^5 PFU RE strain HSV-1. The animals were then replaced individually into cages.
[…] This was carried out by obtaining tear film by swabbing the lower and upper conjunctival sacs and retaining the swab in the nasal fornix for 10 seconds. The swabs were eluted individually in HBSS. 50 μl aliquots of the virus-HBSS eluate were absorbed under confluent HFF cell monolayers for 5 minutes. The monolayers were hydrated with MEM, incubated at 37° C. and observed daily for 1 to 2 weeks to detect developing cytopathology consistent with HSV infection (HSV CPE).
(§1) On day 10 PI, the animals were sacrificed, the corneal epithelium was scraped from the eyes and epithelial and corneal stromal cultures were preformed on HFF cell monolayers. The separation of epithelial virus from deeper stromal virus infection allows for analysis of HSV in these distinct corneal layers. Corneal epithelial and stromal co-cultures were evaluated daily by inverted light microscopy.
At sacrifice, trigeminal ganglia were removed, washed in HBSS, minced and floated over duplicate HFF cell monolayers. The cell co-cultures were monitored by inverted light microscopy for 2 weeks. Negative cultures were blind passaged twice at 7 day intervals. Detection of HSV CPE in the whole-cell co-cultures was scored either positive or negative. HSV recovery from inventive compound-treated, TFT-treated and placebo-treated trigeminal ganglia was compared and differences in recovery rates analyzed.
as §1, with “7” for “10”, “performed” for “preformed”

[3] = tested on: human foreskin fibroblast (HFF) cell monolayers; experiment: Toxicity effects controls: sham-inoculated compound-treated HFF monolayers; type: cell-based; settings: Experiment 5 (Table 13); also: key: +: toxic; -: no toxicity; ±: mild toxicity; T: toxicity effects interfered with CPE rating
Description: (§2) With sufficient stirring, all the compounds completely dissolved.
In the tables, the symbols have the meaning indicated: […]

HSV-1 McKrae Strain = experiment: Direct virucidal efficacy against HSV-1 on HFF monolayers; type: cell-based; settings: for virucidal efficacy (HSV-1 titer): Experiment 5 (Table 12), 24 h PI
Experimental: HSV-1 McKrae Strain was diluted to a final concentration of 10^5 PFU/ml in minimal essential medium (MEM). Hereinafter, this dilution is referred to as the HSV-1 Suspension for convenience.
as §2
Each of the drug solutions were mixed with the HSV-1 Suspension in a 1:1 ratio. The drug and HSV-1 Suspension mixture was incubated at 37° C. for thirty minutes with agitation every ten minutes. After the incubation, fifty microliter aliquots were overlaid onto triplicate confluent human foreskin fibroblast (HFF) cell monolayers. The inoculum was absorbed for thirty minutes and then a medium containing the appropriate drug concentration in MEM was added to the monolayers to a final volume of 0.5 milliliters per culture-well. The monolayers were incubated at 37° C. The developing HSV-1 Cytopathology was monitored daily for two days by inverted light microscopy. Titers were calculated by multiple regression analysis. All data is presented as the average PFU/ml reduction at 24 and/or 48 hours after inoculation (PI).
1. HSV-1 inoculated, non-compound treated HFF monolayers were included as "positive controls"; and […]

Compound: O=c1[nH]c(=O)n([C@H]2C[C@H](O)[C@@H](CO)O2)cc1C(F)(F)F [TFT, trifluorothymidine]
- efficacy ranking during stromal HSV-1 infection (RE strain HSV-1 [1]; Example 3, all eyes, FIG. 1, 1 mg/ml (TFT 0.1%), 9x/day, 5 days): Compound 96>>Compound 23>TFT>Placebo
- efficacy ranking, average stromal disease scores (RE strain HSV-1 [1]; Example 4, FIG. 2): Compound 96>Compound 82>Compound 23>TFT=Placebo
- effect on stromal disease severity/progression (RE strain HSV-1 [1]; Example 5, FIG. 5, initial stromal disease <0.5 on day 3 PI): ineffective in reducing the stromal disease severity
- effect on development and progression of stromal disease (RE strain HSV-1 [1]; Example 5, FIG. 7, score <0.5 on day 3 PI, 4 times per day): ineffective in reducing the development and progression of stromal disease
- HSV-1 recovery, corneal epithelium (C.E.) (RE strain HSV-1 [2]; Example 3 (Table 22)): 60%
- HSV-1 recovery, corneal stroma (C.S.) (RE strain HSV-1 [2]; Example 3 (Table 22)): 60%
- HSV-1 recovery, trigeminal ganglia (T.G.) (RE strain HSV-1 [2]; Example 3 (Table 22)): 60%
- HSV-1 recovery, tear film (positive samples of total) (RE strain HSV-1 [2]; Example 3 (Table 22), day 3 PI): 100%
- HSV-1 recovery, tear film (positive samples of total) (RE strain HSV-1 [2]; Example 3 (Table 22), day 5 PI): 80%
- HSV-1 recovery, tear film (positive samples of total) (RE strain HSV-1 [2]; Example 3 (Table 22), day 7 PI): 30%
- HSV-1 recovery, tear film (positive samples of total) (RE strain HSV-1 [2]; Example 3 (Table 22), day 9 PI): 0%
- HSV-1 recovery, corneal stroma (RE strain HSV-1 [2]; Example 5 (Table 23)): 70%
- HSV-1 recovery (positive cultures per total) (RE strain HSV-1 [2]; Example 5 (Table 23), column 1): 0%
- HSV-1 recovery (positive cultures per total) (RE strain HSV-1 [2]; Example 5 (Table 23), column 3): 100%
- HSV-1 recovery (positive cultures per total) (RE strain HSV-1 [2]; Example 5 (Table 23), column 5): 90%
- HSV-1 recovery (positive cultures per total) (RE strain HSV-1 [2]; Example 5 (Table 23), column 7): 70%

Compound: CC([O-])=CC(C)=NCCN=C(C)C=C(C)[O-].Cc1cnc[nH]1.Cc1cnc[nH]1.[Br-].[Co+3] [Compound 97]
- toxicity effects ([3]; 24 h, 0.00 mg/ml (so in the source)): -
- toxicity effects ([3]; 24 h, 0.01 mg/ml): -
- toxicity effects ([3]; 24 h, 0.5 mg/ml): -
- toxicity effects ([3]; 48 h, 0.00 mg/ml (so in the source)): -
- toxicity effects ([3]; 48 h, 0.01 mg/ml): -
- toxicity effects ([3]; 48 h, 0.5 mg/ml): -
- toxicity effects ([3]; 48 h, 5 mg/ml): +
- virucidal efficacy (HSV-1 titer) (HSV-1 McKrae Strain; Run 1, 0.0001 mg/ml): 10^5 PFU/ml
- virucidal efficacy (HSV-1 titer) (HSV-1 McKrae Strain; Run 1, 0.001 mg/ml): 10^5 PFU/ml
- virucidal efficacy (HSV-1 titer) (HSV-1 McKrae Strain; Run 1, 0.01 mg/ml): 10^4 PFU/ml
- virucidal efficacy (HSV-1 titer) (HSV-1 McKrae Strain; Run 1, 0.1 mg/ml): 10^1 PFU/ml
- virucidal efficacy (HSV-1 titer) (HSV-1 McKrae Strain; Run 1, 1 mg/ml): 0 PFU/ml
- virucidal efficacy (HSV-1 titer) (HSV-1 McKrae Strain; Run 1, 5 mg/ml): 0 PFU/ml
- virucidal efficacy (HSV-1 titer) (HSV-1 McKrae Strain; Run 2, 0.001 mg/ml): 10^4 PFU/ml
- virucidal efficacy (HSV-1 titer) (HSV-1 McKrae Strain; Run 2, 0.01 mg/ml): 10^1 PFU/ml
- virucidal efficacy (HSV-1 titer) (HSV-1 McKrae Strain; Run 2, 0.1 mg/ml): 0 PFU/ml
- virucidal efficacy (HSV-1 titer) (HSV-1 McKrae Strain; Run 2, 1 mg/ml): 0 PFU/ml
- virucidal efficacy (HSV-1 titer) (HSV-1 McKrae Strain; Run 2, 5 mg/ml): 0 PFU/ml
- effective virucidal concentration IC50 (HSV-1 McKrae Strain; Experiment 5 (Table 14), HSV-1): 0.1-.1 mg/ml
- effective virucidal concentration IC90 (HSV-1 McKrae Strain; Experiment 5 (Table 14), HSV-1): 100 to 1000 µg/mL
